The target of one experiment is KAT-6A (Homo sapiens (Human), UniProt Q92794). Kind of experiment: KAT-6A biochemical inhibition assay (SAMDI mass spectrometry). Here is the method: (§1) KAT-6A. Enzyme assay buffer was 50 mM Tris pH 8.0, 0.002% Tween20, 0.005% bovine skin gelatin, and 1 mM dithiothreitol (DTT). For determination of IC50 values, compounds were serially diluted with 2% (v/v) DMSO in the final reaction, pre-incubating each dilution of each compound with 40 μL of assay buffer containing KAT-6A enzyme (12.5 nM final concentration). 10 μL of assay buffer containing 1 μM peptide substrate and 1 μM acetyl coenzyme A (final concentrations) was added. Reactions (50 μL total) were then carried out at 25° C. for 90 minutes. Reactions were terminated by the addition of 0.5% formic acid (final concentration), and a sample of each reaction was analyzed by SAMDI Tech, Inc. (Chicago, Ill.) using self-assembled monolayer desorption/ionization time-of-flight mass spectrometry (Mrksich, M. (2008) Mass spectrometry of self-assembled monolayers: a new tool for molecular surface science. ACS Nano 2, 7-18).
Sequence of KAT-6A (Q92794 other isoform, or with tags, fused parts or gaps): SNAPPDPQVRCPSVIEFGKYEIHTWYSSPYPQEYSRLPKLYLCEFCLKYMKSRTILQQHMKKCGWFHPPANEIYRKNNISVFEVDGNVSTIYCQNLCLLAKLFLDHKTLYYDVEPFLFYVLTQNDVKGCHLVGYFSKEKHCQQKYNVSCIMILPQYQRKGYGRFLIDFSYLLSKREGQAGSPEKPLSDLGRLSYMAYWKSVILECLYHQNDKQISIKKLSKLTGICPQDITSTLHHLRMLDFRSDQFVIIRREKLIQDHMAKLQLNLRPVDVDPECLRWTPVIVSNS

A further experiment has as its target KAT-7 (Homo sapiens (Human), UniProt O95251). Nature of the experiment: KAT-7 biochemical inhibition assay (SAMDI mass spectrometry). The method, then: as §1, with “KAT-7. Enzyme assay” for “KAT-6A. Enzyme assay”, “buffer containing KAT-7 enzyme (6” for “buffer containing KAT-6A enzyme (12.5”, “KAT-7 enzyme (6 nM final” for “KAT-6A enzyme (12.5 nM final”, “substrate and 2 μM acetyl” for “substrate and 1 μM acetyl”, “C. for 120 minutes. Reactions” for “C. for 90 minutes. Reactions”

A further experiment deals with KAT-5 (Homo sapiens (Human), UniProt Q92993). Nature of the experiment: KAT-5 biochemical inhibition assay (SAMDI mass spectrometry). Here is the method:
as §1, with “KAT-5. Enzyme assay” for “KAT-6A. Enzyme assay”, “buffer containing KAT-5 enzyme (9” for “buffer containing KAT-6A enzyme (12.5”, “KAT-5 enzyme (9 nM final” for “KAT-6A enzyme (12.5 nM final”, “substrate and 0.5 μM acetyl” for “substrate and 1 μM acetyl”

Read-outs that look alike come from different tables or passages of the source.

Sequence of KAT-7 (O95251 other isoform, or with tags, fused parts or gaps): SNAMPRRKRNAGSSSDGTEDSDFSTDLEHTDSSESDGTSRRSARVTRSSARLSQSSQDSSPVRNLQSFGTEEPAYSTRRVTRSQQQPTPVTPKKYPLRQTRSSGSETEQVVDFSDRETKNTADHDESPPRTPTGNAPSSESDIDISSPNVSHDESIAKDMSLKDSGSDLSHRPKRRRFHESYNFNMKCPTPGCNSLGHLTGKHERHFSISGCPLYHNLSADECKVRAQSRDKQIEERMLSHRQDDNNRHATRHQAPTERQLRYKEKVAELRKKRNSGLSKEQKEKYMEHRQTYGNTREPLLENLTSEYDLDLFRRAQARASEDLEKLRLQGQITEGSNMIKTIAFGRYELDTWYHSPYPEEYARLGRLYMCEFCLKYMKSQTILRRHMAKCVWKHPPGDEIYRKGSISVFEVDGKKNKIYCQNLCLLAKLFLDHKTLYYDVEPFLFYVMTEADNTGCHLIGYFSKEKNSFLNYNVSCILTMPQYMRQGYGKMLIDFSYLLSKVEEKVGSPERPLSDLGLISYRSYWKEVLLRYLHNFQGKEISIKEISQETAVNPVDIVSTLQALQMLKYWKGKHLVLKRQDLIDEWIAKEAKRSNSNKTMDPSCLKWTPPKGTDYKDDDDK
Sequence of KAT-5 (Q92993 other isoform, or with tags, fused parts or gaps): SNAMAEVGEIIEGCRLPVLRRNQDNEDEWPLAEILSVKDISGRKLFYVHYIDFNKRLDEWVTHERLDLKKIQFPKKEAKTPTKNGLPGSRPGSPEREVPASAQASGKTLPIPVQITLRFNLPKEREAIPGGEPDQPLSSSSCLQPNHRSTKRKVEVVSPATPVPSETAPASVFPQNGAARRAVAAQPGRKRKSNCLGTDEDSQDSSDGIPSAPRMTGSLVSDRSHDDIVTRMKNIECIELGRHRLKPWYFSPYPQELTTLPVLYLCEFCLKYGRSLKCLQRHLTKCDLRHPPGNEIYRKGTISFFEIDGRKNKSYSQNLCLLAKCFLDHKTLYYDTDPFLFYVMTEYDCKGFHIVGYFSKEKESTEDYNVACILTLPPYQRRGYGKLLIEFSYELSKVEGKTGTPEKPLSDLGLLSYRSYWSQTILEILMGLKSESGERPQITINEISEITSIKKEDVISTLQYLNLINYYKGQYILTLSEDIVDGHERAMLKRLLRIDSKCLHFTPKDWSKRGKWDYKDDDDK

As for `Cc1cccc(-c2cc(Cl)c(F)c(C(=O)NNS(=O)(=O)CC3CN(C(=O)OC(C)(C)C)C3)c2)c1` [Compound A-12], the IC50 against KAT-6A (Table 5) was 10 to 50 µM; at KAT-7 (Table 5), at most 10 µM; against KAT-5 (Table 5) it was 10 to 50 µM.

As to `Cc1cccc(-c2cc(Cl)c(F)c(C(=O)NNS(=O)(=O)CC3CNC3)c2)c1` [Compound A-13], the 50% inhibitory concentration (IC50) against KAT-6A (Table 5) is above 100 µM; against KAT-7 (Table 5) it was 10 to 50 µM; at KAT-5 (Table 5) it was above 100 µM.

Take `Cc1cccc(-c2cc(Cl)c(F)c(C(=O)NNS(=O)(=O)CC3CN(C(=O)OC(C)(C)C)CCN3C(=O)OC(C)(C)C)c2)c1` (stereo not drawn) [Compound A-14]: the IC50 on KAT-6A (Table 5) is above 100 µM; on KAT-7 (Table 5), 10 to 50 µM; at KAT-5 (Table 5), above 100 µM.

For the molecule `Cc1cccc(-c2cc(Cl)c(F)c(C(=O)NNS(=O)(=O)CC3CNCCN3)c2)c1` (stereo not drawn) [Compound A-15], the results for the 50% inhibitory concentration (IC50) against KAT-6A (Table 5), at KAT-7 (Table 5) and on KAT-5 (Table 5) were above 100 µM, at most 10 µM and above 100 µM, respectively.

Consider `COc1cccc(S(=O)(=O)NNC(=O)c2cc(-c3ccccc3)cc(Cl)c2F)c1` [Compound A-16], for which the IC50 against KAT-6A (Table 5) was at most 1 µM; against KAT-7 (Table 5), at most 1 µM; on KAT-5 (Table 5) it was at most 10 µM.

Regarding `Cc1cccc(-c2cc(Cl)c(F)c(C(=O)NNS(=O)(=O)CC3CN(C)CCN3C)c2)c1` (stereo not drawn) [Compound A-17], the IC50 against KAT-6A (Table 5) was 10 to 50 µM; against KAT-7 (Table 5) it was at most 10 µM; at KAT-5 (Table 5), above 100 µM.

On to `Cc1cccc(-c2cc(Cl)c(F)c(C(=O)NNS(=O)(=O)C3CCC(NC(=O)OC(C)(C)C)C3)c2)c1` (stereo not drawn) [Compound A-19], for which the IC50 was 50 to 100 µM on KAT-6A (Table 5), at most 10 µM against KAT-7 (Table 5) and 10 to 50 µM against KAT-5 (Table 5).

Regarding `Cc1cccc(-c2cc(Cl)c(F)c(C(=O)NNS(=O)(=O)C3CCC(N)C3)c2)c1` (stereo not drawn) [Compound A-20], the 50% inhibitory concentration (IC50) against KAT-6A (Table 5) was above 100 µM; against KAT-7 (Table 5), 10 to 50 µM; on KAT-5 (Table 5), above 100 µM.

Consider `Cc1cccc(-c2cc(Cl)c(F)c(C(=O)NNS(=O)(=O)CC3CCCCNC3)c2)c1` (stereo not drawn) [Compound A-21], for which the IC50 against KAT-6A (Table 5) is above 100 µM; at KAT-7 (Table 5), at most 10 µM; against KAT-5 (Table 5), above 100 µM.

Consider `Cc1cccc(-c2cc(Cl)c(F)c(C(=O)NNS(=O)(=O)CC3CCCCN(C(=O)OC(C)(C)C)C3)c2)c1` (stereo not drawn) [Compound A-22], for which the IC50 at KAT-6A (Table 5) is 10 to 50 µM; on KAT-7 (Table 5) it was at most 1 µM; against KAT-5 (Table 5), 10 to 50 µM.

For the molecule `Cc1cccc(-c2cc(Cl)c(F)c(C(=O)NNS(=O)(=O)C(C)C3CCCN(C(=O)OC(C)(C)C)C3)c2)c1` (stereo not drawn) [Compound A-23], the concentration for half-maximal inhibition (IC50) is above 100 µM at KAT-6A (Table 5), at most 1 µM on KAT-7 (Table 5) and above 100 µM on KAT-5 (Table 5).

In the case of `Cc1cccc(-c2cc(Cl)c(F)c(C(=O)NNS(=O)(=O)CC3CN(C)CCN3)c2)c1` (stereo not drawn) [Compound A-24], the results for the IC50 against KAT-6A (Table 5), against KAT-7 (Table 5) and against KAT-5 (Table 5) were 10 to 50 µM, at most 10 µM and 50 to 100 µM, respectively.

Consider `Cc1cccc(-c2cc(Cl)c(F)c(C(=O)NNS(=O)(=O)C(C)C3CCCNC3)c2)c1` (stereo not drawn) [Compound A-25], for which the figures for the IC50 against KAT-6A (Table 5), against KAT-7 (Table 5) and at KAT-5 (Table 5) were above 100 µM, 10 to 50 µM and above 100 µM, respectively.

Turning to `CNCCCS(=O)(=O)NNC(=O)c1cc(-c2cccc(C)c2)ccc1F` [Compound A-26], the IC50 against KAT-6A (Table 5), at KAT-7 (Table 5) and on KAT-5 (Table 5) was above 100 µM in each case.

As to `CNCCCS(=O)(=O)NNC(=O)c1cc(-c2cccc(C)c2)cc(Cl)c1F` [Compound A-27], the half-maximal inhibitory concentration (IC50) at KAT-6A (Table 5), against KAT-7 (Table 5) and against KAT-5 (Table 5) was above 100 µM in each case.

Turning to `Cc1cc(-c2cccc(F)c2)cc(C(=O)NNS(=O)(=O)c2cccc(O)c2)c1F` [Compound A-28], the IC50 against KAT-6A (Table 5), at KAT-7 (Table 5) and on KAT-5 (Table 5) was at most 1 µM each time.

In the case of `O=C(NNS(=O)(=O)c1cccc(O)c1)c1cc(-c2ccccc2)cc(F)c1F` [Compound A-29], the IC50 on KAT-6A (Table 5) is at most 1 µM; on KAT-7 (Table 5), at most 1 µM; on KAT-5 (Table 5), at most 10 µM.

For the molecule `O=C(NNS(=O)(=O)c1cccc(O)c1)c1cc(-c2ccccc2)cc(Cl)c1F` [Compound A-31], the IC50 on KAT-6A (Table 5), on KAT-7 (Table 5) and against KAT-5 (Table 5) was at most 1 µM in each case.

Regarding `Cc1cccc(-c2cc(Cl)c(F)c(C(=O)NNS(=O)(=O)CC3CNCCN3C)c2)c1` (stereo not drawn) [Compound A-32], the IC50 against KAT-6A (Table 5) is above 100 µM; at KAT-7 (Table 5), 10 to 50 µM; against KAT-5 (Table 5), above 100 µM.

`Cn1cnc(-c2cc(Cl)c(F)c(C(=O)NNS(=O)(=O)CC3CCC(OCCO)CC3)c2)c1` (stereo not drawn) [Compound I-467]: the 50% inhibitory concentration (IC50) on KAT-6A, on KAT-7 and on KAT-5 was below 10 µM each time.

`COc1cnc(S(=O)(=O)NNC(=O)c2cc(-c3cn(C)cn3)cc(Cl)c2F)c(F)c1` [Compound I-468]: the half-inhibitory concentration (IC50) against KAT-6A and against KAT-5 was below 10 µM each time.

Turning to `Cn1cnc(-c2cc(Cl)c(F)c(C(=O)NNS(=O)(=O)CC3CN(C(=O)OC(C)(C)C)CCN3C(=O)OC(C)(C)C)c2)c1` (stereo not drawn) [Compound I-469], the concentration for half-maximal inhibition (IC50) against KAT-6A and at KAT-5 was above 100 µM throughout.

For the molecule `CC(=O)NCc1c(-c2cn(C)cn2)cc(C(=O)NNS(=O)(=O)CC2CCCCC2)c(F)c1Cl` [Compound I-470], the IC50 at KAT-6A is 10 to 50 µM; on KAT-5 it was above 100 µM.

Take `Cn1cnc(-c2cc(Cl)c(F)c(C(=O)NNS(=O)(=O)C[C@H]3CC[C@H](N(C)CC(F)(F)F)CC3)c2)c1` [Compound I-471]: the IC50 against KAT-6A, at KAT-7 and against KAT-5 was below 10 µM in each case.

With `Cn1cnc(-c2cc(Cl)c(F)c(C(=O)NNS(=O)(=O)CC3CNCCN3)c2)c1` (stereo not drawn) [Compound I-472], the 50% inhibitory concentration (IC50) against KAT-6A and against KAT-5 was above 100 µM each time.

Take `CN(CC(F)(F)F)C1CCCC(CS(=O)(=O)NNC(=O)c2cc(-c3cn(C)cn3)cc(Cl)c2F)C1` (stereo not drawn) [Compound I-473]: the figures for the IC50 against KAT-6A, on KAT-7 and against KAT-5 were 10 to 50 µM, below 10 µM and below 10 µM, respectively.

Take `Cn1cnc(-c2cc(Cl)c(F)c(C(=O)NNS(=O)(=O)Cc3nn(C)cc3Cl)c2)c1` [Compound I-474]: the IC50 against KAT-6A, against KAT-7 and against KAT-5 was below 10 µM throughout.

Regarding `Cn1cnc(-c2cc(C(=O)NNS(=O)(=O)CC3CCCCC3)c(F)c(Cl)c2N(C(=O)OC(C)(C)C)C(=O)OC(C)(C)C)c1` [Compound I-475], the IC50 on KAT-6A is above 100 µM; against KAT-7 it was 50 to 100 µM; at KAT-5, above 100 µM.

On to `Cn1cnc(-c2cc(C(=O)NNS(=O)(=O)CC3CCCCC3)c(F)c(Cl)c2N)c1` [Compound I-476], for which the IC50 on KAT-6A, against KAT-7 and on KAT-5 was below 10 µM in each case.

As to `Cn1cnc(-c2cc(Cl)c(F)c(C(=O)NNS(=O)(=O)Cc3c(Cl)cnn3C)c2)c1` [Compound I-477], the results for the IC50 at KAT-6A and on KAT-5 were 10 to 50 µM and below 10 µM, respectively.

`CCc1cccc(S(=O)(=O)NNC(=O)c2cc(-c3ccccn3)cc(Cl)c2F)c1` [Compound I-478]: the half-inhibitory concentration (IC50) on KAT-6A, against KAT-7 and on KAT-5 was below 10 µM each time.

As for `Cn1cnc(-c2cc(Cl)c(F)c(C(=O)NNS(=O)(=O)Cc3ccn(C)n3)c2)c1` [Compound I-479], the 50% inhibitory concentration (IC50) on KAT-6A, at KAT-7 and against KAT-5 was below 10 µM each time.

For the molecule `Cn1cnc(-c2cc(Cl)c(F)c(C(=O)NNS(=O)(=O)Cc3ccnn3C)c2)c1` [Compound I-480], the half-maximal inhibitory concentration (IC50) is 10 to 50 µM at KAT-6A, below 10 µM on KAT-7 and 10 to 50 µM at KAT-5.

For the molecule `O=C(NNS(=O)(=O)c1cccc(O)c1)c1cc(-c2ccccn2)cc(Cl)c1F` [Compound I-481], the half-inhibitory concentration (IC50) at KAT-6A, at KAT-7 and on KAT-5 was below 10 µM throughout.

For the molecule `Cn1cnc(-c2cc(Cl)c(F)c(C(=O)NNS(=O)(=O)Cc3ccnn3C)c2)c1` [Compound I-482], the IC50 at KAT-6A and at KAT-5 was 10 to 50 µM in each case.

Consider `CCc1cc(O)cc(S(=O)(=O)NNC(=O)c2cc(-c3ccccn3)cc(Cl)c2F)c1` [Compound I-483], for which the IC50 at KAT-6A, on KAT-7 and against KAT-5 was below 10 µM throughout.

The record behind these values is patent US11685732B2, “MYST family histone acetyltransferase inhibitors” (Epizyme, Inc., priority 2017, dated 2023).
